Data on eleven molecules can be found in article PMC11945486, “TAS1R2/TAS1R3 Single-Nucleotide Polymorphisms Affect Sweet Taste Receptor Activation by Sweeteners: The SWEET Project” (Nutrients, 2025).

No end group written: not given here.

The assay concerns the target T1, human TAS1R2-S212G/TAS1R3-WT (Homo sapiens, UniProt Q7RTX0+Q8TE23, S212G).
T1 construct: expressed in transfected cells; host or cells: HEK293T-Gα16gust44
T1 sequence (Q8TE23 20-839 S212G): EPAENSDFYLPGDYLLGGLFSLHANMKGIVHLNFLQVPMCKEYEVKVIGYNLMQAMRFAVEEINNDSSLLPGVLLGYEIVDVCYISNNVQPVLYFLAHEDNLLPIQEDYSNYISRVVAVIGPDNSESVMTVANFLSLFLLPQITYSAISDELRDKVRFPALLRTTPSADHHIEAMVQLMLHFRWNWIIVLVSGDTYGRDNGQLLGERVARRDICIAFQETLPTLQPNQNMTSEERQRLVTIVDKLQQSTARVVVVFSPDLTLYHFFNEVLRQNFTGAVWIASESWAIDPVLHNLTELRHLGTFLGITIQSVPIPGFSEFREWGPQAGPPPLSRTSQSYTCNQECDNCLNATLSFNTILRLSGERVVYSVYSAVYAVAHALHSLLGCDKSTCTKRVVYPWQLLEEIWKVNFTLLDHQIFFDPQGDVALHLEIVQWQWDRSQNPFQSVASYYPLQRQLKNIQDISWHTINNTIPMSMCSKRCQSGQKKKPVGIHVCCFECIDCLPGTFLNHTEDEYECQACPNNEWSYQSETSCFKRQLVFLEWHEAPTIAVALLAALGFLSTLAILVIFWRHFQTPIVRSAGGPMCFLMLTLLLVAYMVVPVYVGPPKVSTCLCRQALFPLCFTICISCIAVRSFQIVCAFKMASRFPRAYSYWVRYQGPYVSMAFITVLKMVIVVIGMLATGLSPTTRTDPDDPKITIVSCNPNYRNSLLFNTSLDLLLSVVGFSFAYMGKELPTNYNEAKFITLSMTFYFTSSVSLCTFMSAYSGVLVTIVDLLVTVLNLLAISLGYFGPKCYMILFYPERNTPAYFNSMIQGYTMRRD
T1 sequence (Q7RTX0 21-852): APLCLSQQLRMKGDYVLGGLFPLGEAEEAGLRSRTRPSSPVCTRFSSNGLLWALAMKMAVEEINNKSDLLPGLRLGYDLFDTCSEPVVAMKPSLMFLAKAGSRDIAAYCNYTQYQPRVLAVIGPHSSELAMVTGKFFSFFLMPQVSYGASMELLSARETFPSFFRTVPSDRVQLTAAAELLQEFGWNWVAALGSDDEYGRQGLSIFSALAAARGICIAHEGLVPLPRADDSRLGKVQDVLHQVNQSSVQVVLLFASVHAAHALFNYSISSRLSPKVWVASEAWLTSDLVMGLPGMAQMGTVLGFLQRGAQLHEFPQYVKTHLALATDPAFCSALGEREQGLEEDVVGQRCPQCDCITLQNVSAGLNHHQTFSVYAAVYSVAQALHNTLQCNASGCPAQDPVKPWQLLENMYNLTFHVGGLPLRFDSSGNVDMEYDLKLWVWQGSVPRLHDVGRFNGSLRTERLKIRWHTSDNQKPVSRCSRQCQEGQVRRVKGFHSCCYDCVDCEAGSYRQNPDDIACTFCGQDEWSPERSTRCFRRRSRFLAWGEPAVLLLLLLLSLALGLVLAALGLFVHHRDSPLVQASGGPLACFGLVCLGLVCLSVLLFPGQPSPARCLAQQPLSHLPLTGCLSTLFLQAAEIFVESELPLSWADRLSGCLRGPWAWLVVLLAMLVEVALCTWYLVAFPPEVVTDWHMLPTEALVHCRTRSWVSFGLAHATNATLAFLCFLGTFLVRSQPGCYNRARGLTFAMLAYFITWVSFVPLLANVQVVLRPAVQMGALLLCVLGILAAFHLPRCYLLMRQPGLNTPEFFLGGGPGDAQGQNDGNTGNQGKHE
Briefly: Calcium mobilisation assay, TAS1R2 variant S212G with TAS1R3-WT. The assay is classed as cell-based. Particulars: for Max ΔF/F0: maximal signal amplitude. An excerpt: The coding sequences for TAS1R2 and TAS1R3 were commercially synthesised, and the human codon was optimised for expression in human cells. The coding sequences of human TAS1R2 and TAS1R3 were subcloned and inserted into the mammalian expression vectors pcDNA6/myc-HisA and pcDNA4/myc-HisA (Invitrogen; Thermo Fisher Scientific; Illkirch, France) between the EcoRI and NotI restriction sites, generating the plasmids pcDNA6-TAS1R2 and pcDNA4-TAS1R3, respectively. To increase protein expression in mammalian cells, an upstream start codon was used, which was a sequence called MAX, corresponding to the QBI SP163 element also described in pcDNA4-HisMax (Invitrogen; Thermo Fisher Scientific; Illkirch, France). To measure the expression level of the receptor by immunohistochemistry, we used the FLAG sequence ([…]) in the C-terminal position, which encodes the FLAG tag epitope. SNP variants of TAS1R2 and TAS1R3 were constructed based on […], respectively, using site-directed mutagenesis (Genewiz; Leipzig, Germany).
The HEK293T cells were kindly provided by Jay P. Slack (Givaudan Flavors Corporation; Cincinnati, OH, USA). HEK293T cells stably transfected with Gα16gust44 [43, 67] were seeded in poly-D-lysine-coated clear-bottom black 96-well plates (0.35 × 10^5 cells/well) in high-glucose DMEM supplemented with 2 mM GlutaMAX, 10% dialysed foetal bovine serum with penicillin/streptomycin and G418 (400 μg/mL) at 37 °C and 6.3% CO2 in a humidified atmosphere as previously reported. […] As a negative control, HEK293T cells were mock-transfected with the empty expression vector. After a further 24 h of incubation, the HEK293T cells were washed with C1 buffer (130 mM NaCl, 5 mM KCl, 10 mM HEPES pH 7.4 and 2 mM CaCl2). The 96-well plates containing the cells were then stimulated with sweet-tasting compounds. […] Different concentration ranges were tested depending on the sweet compound injected. The Ca^2+ changes were expressed as fractional changes in fluorescent light intensity: ΔF/F = (F − F0)/F0, where F was the fluorescent light intensity at each point, and F0 was the value of emitted fluorescent light prior to stimulus application. To calculate dose–response relationships, the changes in fluorescence upon stimulus application were averaged, mock-subtracted and baseline-corrected. The dose–response data obtained were adjusted using a 4-parameter logistic equation. The half-maximal effective concentrations (EC50 values) and maximal signal amplitudes were calculated using SigmaPlot software (version 15.0) (Systat Software; San Jose, CA, USA).
For in vitro calcium mobilisation assay performed on hTAS1R2-SNPs, hTAS1R3-SNPs and mTAS1R3-I60T, 6 to 7 concentrations were tested for each sweet compound, plus buffer alone. All concentration–receptor combinations were measured in duplicate, and each experiment was repeated at least 4 times (8 wells/concentration). Results were expressed for each concentration as ΔF/F mean ± SEM and represented as dose–response curves.
For orientation: Calcium assays in cells follow changes in intracellular calcium, usually with a dye or a luminescent sensor.

With `C=C(C)[C@@H]1CC=C(/C=N/O)CC1` [Perillartine, perillartine], the EC50 is 22.9 ± 0.6 µM, the “R1 = Variant EC50/WT EC50” value is on record as 1.3 and the “Max ΔF/F0” value is reported as 1.30 ± 0.01.
Turning to `O=S(=O)(O)NC1CCCCC1` [Cyclamate, cyclamate], the concentration for a half-maximal effect (EC50) was 1770 ± 44 µM.
On to `C=C1C[C@@]23CC[C@H]4[C@@](C)(CCC[C@@]4(C)C(=O)O[C@@H]4O[C@H](CO)[C@@H](O)[C@H](O[C@@H]5O[C@H](CO)[C@@H](O)[C@H](O)[C@H]5O)[C@H]4O[C@@H]4O[C@H](CO)[C@@H](O)[C@H](O)[C@H]4O)[C@@H]2CC[C@]1(O[C@@H]1O[C@H](CO)[C@@H](O)[C@H](O[C@@H]2O[C@H](CO)[C@@H](O)[C@H](O)[C@H]2O)[C@H]1O[C@@H]1O[C@H](CO)[C@@H](O)[C@H](O)[C@H]1O)C3` [Rebaudioside M, rebaudioside M], for which the EC50 worked out at 23.2 ± 1.1 µM, the “R1 = Variant EC50/WT EC50” value was 1.4 and the “Max ΔF/F0” value came to 1.14 ± 0.02.
In the case of `OC[C@H]1O[C@H](O[C@]2(CCl)O[C@H](CCl)[C@@H](O)[C@@H]2O)[C@H](O)[C@@H](O)[C@H]1Cl` [Sucralose], the EC50 turned out to be 96 ± 6 µM, the “R1 = Variant EC50/WT EC50” value came to 1.1 and the “Max ΔF/F0” value amounted to 0.64 ± 0.02.
Taken in the same sequence, the figures for `CC1=CC(=O)NS(=O)(=O)O1` [Acesulfame K, acesulfame K] were 438 ± 25 µM, 0.6 and 0.28 ± 0.01.
With “brazzein (QDKCKKVYENYPVSKCQLANQCNYDCKLDKHARSGECFYDEKRNLQCICDYCEY; ends and bridges not checked; cysteine pairing not given here; UniProt P56552 1-54, looked up) [sweet-tasting protein obtained by recombinant production using the yeast Pichia pastoris]”, the “R1 = Variant EC50/WT EC50” value came to 1.4 and the “Max ΔF/F0” value is 1.18 ± 0.02.
On to thaumatin, for which the “R1 = Variant EC50/WT EC50” value is reported as 0.8 and the “Max ΔF/F0” value is given as 0.6 ± 0.01.
As for `COC(=O)[C@H](Cc1ccccc1)NC(=O)[C@H](CC(=O)O)NCCC(C)(C)C` [Neotame], the EC50 worked out at 0.99 ± 0.05 µM, the “R1 = Variant EC50/WT EC50” value is 1.2 and the “Max ΔF/F0” value was 0.63 ± 0.01.
As to `C[C@H](CC[C@@H](O[C@@H]1O[C@H](CO[C@@H]2O[C@H](CO)[C@@H](O)[C@H](O)[C@H]2O)[C@@H](O)[C@H](O)[C@H]1O[C@@H]1O[C@H](CO)[C@@H](O)[C@H](O)[C@H]1O)C(C)(C)O)[C@H]1CC[C@@]2(C)[C@@H]3CC=C4[C@@H](CC[C@H](O[C@@H]5O[C@H](CO[C@@H]6O[C@H](CO)[C@@H](O)[C@H](O)[C@H]6O)[C@@H](O)[C@H](O)[C@H]5O)C4(C)C)[C@]3(C)[C@H](O)C[C@]12C` [Mogroside V, mogroside V], the EC50 came out at 21.2 ± 2.1 µM, the “R1 = Variant EC50/WT EC50” value came out at 1.2 and the “Max ΔF/F0” value was determined as 1.32 ± 0.05.
`COc1ccc(CCC(=O)c2c(O)cc(O[C@@H]3O[C@H](CO)[C@@H](O)[C@H](O)[C@H]3O[C@@H]3O[C@@H](C)[C@H](O)[C@@H](O)[C@H]3O)cc2O)cc1O` [NHDC, neohesperidin dihydrochalcone]: the EC50 came out at 90.7 ± 8.1 µM, the “R1 = Variant EC50/WT EC50” value was 1.2 and the “Max ΔF/F0” value came out at 0.84 ± 0.03.

B1: thaumatin (protein)
chain: ATFEIVNRCSYTVWAAASKGDAALDAGGRQLNSGESWTINVEPGTKGGKIWARTDCYFDDSGSGICKTGDCGGLLRCKRFGRPPTTLAEFSLNQYGKDYIDISNIKGFNVPMDFSPTTRGCRGVRCAADIVGQCPAKLKAPGGGCNDACTVFQTSEYCCTTGKCGPTEYSRFFKRLCPDAFSYVLDKPTTVTCPGSSNYRVTFCPTA
modifications: Eight disulfides
notes: sweet-tasting plant protein, E957
Regarding B1, the EC50 was 6.1 ± 0.2 µM.

As a reminder, the EC50 is the concentration that produces a half-maximal response.
